Source: US20230202975A1 (Recordati Industria Chimica e Farmaceutica S.p.A., priority 2021, published 2023)

Columns and labels:
Format in all cases: physicochemical
[1] = Particle size distribution (laser particle size analyser, Ph. Eur. 2.9.31)
Description: Particle size distribution was evaluated in line with European Pharmacopeia 2.9.31 with the instrument and according to sample preparation and test conditions reported in the following Table 3: […]

[2] = Bulk density and tapped density (Ph. Eur. 2.9.34), Hausner ratio; details: average of three samples, after drying under vacuum
Description: Bulk density and Tapped density: were measured according to the method of pharmacopoeia (Ph. Eur. 2.9.34). 100 g of sample was weighed and then placed in the test tube, noting the apparent volume without any type of treatment to the sample. Afterwards, 10, 500 and 1250 taps are made using the automatic volumeter (Model: Schleuniger JV2000, Equipment code: CE9), noting the apparent volumes obtained in these three tests. In the event that the difference between the volume obtained for the 500 and 1250 taps was greater than 2 ml, the operation was repeated in increments of 1250 taps until the difference within measurements is less than or equal to 2 ml. For each batch the test was carried out in duplicate.
The bulk density and tapped density were calculated according to the following equations: […]
where m is the amount of sample weighed expressed in grams and V0 is the apparent uncompacted volume expressed in milliliters. Tapped density:
Another parameter relevant for evaluating powder flowability is the Hausner ratio namely the ratio between tapped and bulk densities. Generally, a Hausner ratio of higher than 1.50 indicates a very poor flowability (Powder properties in food production systems, Handbook of Food Powders, Ed.: Bhesh Bhandari, Nidhi Bansal, Min Zhang, Pierre Schuck, Woodhead Publishing, 2013, chapter 12, page 298).

[3] = pH of aqueous solution (potentiometric); details: 100 mg of sample dissolved in 10 ml of water
Description: Keys: ^1 pH was determined potentiometncally on a solution of 100 mg of sample dissolved in 10 ml of water; HPLC purity is expressed as area percentage (area of the peak/total area×100); DMT: 2,2-dimethylthiazolidine.

Compound	Particle Size, compliance with specification D50 <150 mic [1]	Particle Size, compliance with specification D90 <450 mic [1]	other results
NCCS.O=C(O)C(O)C(O)C(=O)O (stereo not shown) [Example R2, Cysteamine Bitartrate]	(100%)	(100%)	–
NCCS.O=C(O)C(O)C(O)C(=O)O (stereo not shown) [Example C2, Cysteamine Bitartrate]	~55%	(100%)	–
NCCS.O=C(O)C(O)C(O)C(=O)O (stereo not shown) [Example C1, Cysteamine Bitartrate]	~65%	(100%)	–
NCCS.O=C(O)C(O)C(O)C(=O)O (stereo not shown) [Example R3, Cysteamine Bitartrate]	(100%)	(100%)	–
NCCS.O=C(O)C(O)C(O)C(=O)O (stereo not shown) [Example C3, Cysteamine Bitartrate]	~53%	(100%)	–
NCCS.O=C(O)C(O)C(O)C(=O)O (stereo not shown) [Example 10B, Cysteamine Bitartrate, reference compound]	–	–	Bulk density ([2]; listed as Cysteamine Bitartrate crystallized according to the prior art process (direct ad)): 0.279 g/mL; Bulk density ([2]; listed as Ex. 10B): 0.279 g/mL; Tapped density ([2]; listed as Ex. 10B): 0.442 g/mL
Cysteamine Bitartrate [Example 2]	–	–	pH [3]: 3.53
NCCS.O=C(O)C(O)C(O)C(=O)O (stereo not shown) [Example 10A, Cysteamine Bitartrate]	–	–	Bulk density ([2]; listed as Cysteamine Bitartrate crystallized according to the process of the present inven): 0.301 g/mL; Bulk density ([2]; listed as Ex. 10A): 0.301 g/mL; Tapped density ([2]; listed as Ex. 10A): 0.423 g/mL
NCCS.O=C(O)C(O)C(O)C(=O)O (stereo not shown) [Example R1, Cysteamine Bitartrate]	(100%)	(100%)	–
